The text below walks through data of patent publication US7410966B2, “Use of and some novel imidazopyridines” (AstraZeneca AB, priority 2002, dated 2008).

Structures can show the parent of a compound that is named as a salt.

This assay has as its target T1, recombinant human Itk kinase domain fused with GST (Homo sapiens, UniProt Q08881).
T1 construct: recombinant human Itk kinase domain fused with GST (Glutathione S-Transferase); GST (Glutathione S-Transferase); made in house; host or cells: High Five insect cells
T1 sequence (Q08881 363-615 limits assumed): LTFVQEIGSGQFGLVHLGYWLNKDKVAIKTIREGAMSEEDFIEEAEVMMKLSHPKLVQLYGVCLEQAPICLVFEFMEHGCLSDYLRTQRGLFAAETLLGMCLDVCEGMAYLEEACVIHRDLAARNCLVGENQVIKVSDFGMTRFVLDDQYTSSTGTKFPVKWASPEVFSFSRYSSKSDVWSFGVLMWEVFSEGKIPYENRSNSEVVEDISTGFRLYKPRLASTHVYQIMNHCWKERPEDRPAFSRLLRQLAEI
Briefly: Itk LANCE TRF Assay. Format: biochemical. Conditions: 2 μM biotinylated peptide substrate, 50 μM ATP, 50 minutes RT, read-out: Inhibition of Kinase Itk (IC50 μM). The method, then:
The Itk kinase assay utilized recombinant human Itk kinase domain fused with GST (Glutathione S-Transferase). The protein was expressed in High five insect cells, purified in one step on an affinity chromatography glutathione column and stored in 50 mM Tris/HCl (pH 7.6), 150 mM NaCl, 5% (w/v) mannitol, 1 mM DTT, 30% glycerol at −70° C. The kinase substrate used in the assay was a biotinylated peptide derived from the Src-optimal substrate (Nair et al, J. Med. Chem., 38: 4276, 1995; biotin-AEEEIYGEFEAKKKK).
The assay additions were as follows: Test compounds (or controls; 1 μL in 100% DMSO) were added to black 96-well flat-bottomed plates (Greiner 655076) followed by 20 μL Itk in assay buffer and the reaction was started by adding 20 μL ATP and peptide substrate in assay buffer. The assay buffer constitution during, phosphorylation was: 50 mM HEPES (pH 6.8), 10 mM MgCl2, 0.015% Brij 35, 1 mM DTT, 10% glycerol, 160 ng/well Itk, 2 μM peptide substrate and 50 μM ATP. The assay was stopped after 50 minutes (RT) by adding 150 μL ice-cold Stop solution (50 mM Tris/HCl, pH 7.5, 10 mM EDTA, 0.9% NaCl and 0.1% BSA) together with LANCE reagents (2 nM PT66-Eu^3+, Wallac AD0069 and 5 μg/mL Streptavidin-APC, Wallac AD0059. Both concentrations were final in stopped assay solution). The plates were measured on a Wallac 1420 Victor 2 instrument with TRF settings after 1 h incubation, and the ratio (665 signal/615 signal)*10000 was used to calculate the inhibition values. IC50 values were determined using XLfit.
For orientation: Time-resolved FRET reads energy transfer from a long-lived donor to a nearby acceptor.
Take `COc1cc(-c2nc3cc(Br)cnc3[nH]2)ccc1OCc1ccccc1` [Example 29, 2-[4-(Benzyloxy)-3-methoxyphenyl]-6-bromo-3H-imidazo[4,5-b]pyridine trifluoroacetate]: the IC50 was found to be 0.31 µM.
Take `Brc1cnc2[nH]c(-c3ccc(OCCNc4nccs4)cc3)nc2c1` [Example 104, N-{2-[4-(6-Bromo-3H-imidazo[4,5-b]pyridin-2-yl)phenoxy]ethyl}-1,3-thiazol-2-amine bis(trifluoroacetate)]: the half-maximal inhibitory concentration (IC50) turned out to be 0.24 µM.
Under `OC1CCN(CC(O)COc2ccc(-c3nc4cc(Br)cnc4[nH]3)cc2)C1` (centres unmarked) [Example 124, 1-{3-[4-(6-Bromo-3H-imidazo[4,5-b]pyridin-2-yl)phenoxy]-2-hydroxypropyl}pyrrolidin-3-ol] stands 0.43 µM.
Under `OCCN1CCN(CC(O)COc2ccc(-c3nc4cc(Br)cnc4[nH]3)cc2)CC1` (centres unmarked) [Example 162, 1-[4-(6-Bromo-3H-imidazo[4,5-b]pyridin-2-yl)phenoxy]-3-[4-(2-hydroxyethyl)piperazin-1-yl]propan-2-ol bis(trifluoroacetate)] stands 0.53 µM.
The same measure for `COc1ccc(CNc2ccc(-c3nc4cc(Br)cnc4[nH]3)cc2)cc1` [Example 180, N-[4-(6-Bromo-3H-imidazo[4,5-b]pyridin-2-yl)phenyl]-N-(4-methoxybenzyl)amine bis(trifluoroacetate)]: 0.29 µM.
For the molecule `Clc1cnc2[nH]c(-c3ccc(OCCN4CCOCC4)cc3)nc2c1N1CCCC1` [Example 236, 6-Chloro-2-[4-(2-morpholin-4-ylethoxy)phenyl]-7-pyrrolidin-1-yl-3H-imidazo[4,5-b]pyridine], the IC50 turned out to be 0.41 µM.
Turning to `Cc1ccc(-c2c(Cl)cnc3[nH]c(-c4ccc(OCCN5CCOCC5)cc4)nc23)cc1` [Example 238, 6-Chloro-7-(4-methylphenyl)-2-[4-(2-morpholin-4-ylethoxy)phenyl]-3H-imidazo[4,5-b]pyridine], the IC50 was 0.35 µM.
Under `COc1ccc(S(=O)(=O)Nc2ccc(-c3nc4ncc(Cl)c(Cl)c4[nH]3)cc2)cc1` [Example 267, N-[4-(6,7-Dichloro-1H-imidazo[4,5-b]pyridin-2-yl)phenyl]-4-methoxybenzenesulfonamide] stands 0.26 µM.

The IC50 is the concentration needed to halve the response being measured.
